# Measured values: patent publication US8080417B2, “Methods of ex vivo hematopoietic stem cell expansion by co-culture with mesenchymal cells” (priority 2004, dated 2011)
# Assays:
# [1] = cited from earlier work
# [2] = test system: hematopoietic stem cells (mononuclear cells co-cultured with mesenchymal cells); experiment: Mesenchymal-MNC co-culture at 21 days +/- Nicotinamide 5 mM: cell counts and surface markers; assay type: cell-based, human
# Text: Isolation of mesenchymal cells: Mononuclear cells containing mesenchymal cells from bone marrow were obtained from a […] prepared by negative immuno-depletion of CD3, CD14, CD19, CD38, CD66b, and glycophorin-A positive cells using a commercially available kit (RosetteSep®, StemCell Technologies, Vancouver, BC, Canada), as per manufacturer's instructions. […] Blood 90 Suppl. 1 347b, 1997 (abst)]. The immuno-depleted cells were harvested, and then either further separated by layering on a Ficoll-Paque (Amersham-Pharmacia, Piscataway, N.J., USA) density gradient column (1.077 g/cm^3) and centrifuged at 400×g for 30 minutes, or cultured without further separation. The collected cells were plated in T75 non-coated tissue culture flasks (Nunc) at a concentration of 2×10^5 cells/ml, in expansion medium containing: low glucose DMEM and 20% Fetal Bovine Serum (FBS, Hyclone, Logan, Utah, USA) supplemented with or without 10 ng/ml bFGF (Pepro Tech Inc, Rocky Hill N.J.), 0.05 mg/ml gentamicin (Sigma Inc., St. Louis, Mo.) and 2 mM L-glutamine (Biological Industries, Israel). Selected cells were allowed to adhere for 3-4 days and non-adherent cells were washed out with medium changes. Some experiments were initiated as well with the entire MNC fraction.
# Maintenance and expansion of mesenchymal cells: When adherent mesenchymal cells reached approximately 80-90% confluence, they were detached with 0.25% trypsin-EDTA (Sigma, Inc. St Louis, Mo.), washed twice in DMEM and 20% Fetal Bovine Serum, with centrifugation, 400 g, 5 min., and re-plated at a 1:2 to 1:1000 dilution under the same culture conditions.
# (§1) Mesenchymal hematopoietic co-cultures: Mesenchymal cultures were established as described above. After reaching confluence, the mesenchymal medium was discarded and replaced with fresh, hematopoietic supportive medium containing early acting or early and late acting cytokines, and hematopoietic cells selected from; cord blood, bone marrow, placenta or peripheral blood mononuclear cells or purified progenitor cells (CD34+ or CD133+ cells), with or without a modulator of cell fate. Mononuclear or purified stem and/or progenitor cells were isolated and prepared for ex-vivo culture as previously described (see, above, or, for example, PCT IL05/000753). At different intervals the non-adherent cells were harvested, analyzed for hematopoietic potential by functional analysis (clonogenic assay, CFU, etc), and re-cultured in a stroma-free medium. The stromal layer was then re-supplemented with fresh hematopoietic supportive medium (medium including 10% FCS, SCF, TPO, FLT3, and IL6). This process was repeated several times during two to six weeks co-culture duration (as on day 10, day 14, etc).
# Immunophenotyping: At different time points the cells were detached with 1 mM EDTA (15′, 37° C.). The detached cells were washed with a PBS solution containing 1% BSA, and stained (at 4° C. for 30 min) with either fluorescein isothiocyanate (FITC) or phycoerythrin (PE)-conjugated antibodies: mesenchymal markers 105 PE, 105 FITC (Serotec), 73 PE, and 49b PE, and other, non-mesenchymal markers such as 45 FITC, 14 FITC, HLA-DR FITC (BD Biosciences Pharmngen), 34 PE (Dako, Carpenteria, Calif., USA), HLA class1 PE, (BD Biosciences Pharmingen, San Diego Calif.). The cells were then washed in the above buffer and analyzed using a FACScalibur® flow cytometer (Becton Dickinson and Co, San Jose, Calif., USA). Cells were passed at a rate of about 1000 cells/second, using saline as the sheath fluid. A 488 nm argon laser beam served as the light source for excitation. Emission of ten thousand cells was measured using logarithmic amplification and calculated using the cellQuest software.
# [3] = test system: hematopoietic stem cells (mononuclear cells co-cultured with mesenchymal cells); experiment: Assay for Colony Forming Units (CFU) on 21-day mesenchymal-MNC co-culture; assay type: cell-based, human; conditions: Table 3 experiment; 21 days; Nicotinamide 5 mM
# Text: as §1
# Assay for Colony Forming Units (CFU)—Cells were cloned in semi-solid, methylcellulose-containing medium supplemented with 2 IU/mL erythropoietin (Eprex, Cilag AG Int., Switzerland), stem cell factor and IL-3, both at 20 ng/mL, G-CSF and GM-CSF, both at 10 ng/mL (all from Pepro Tech, Rocky Hill, N.J.). […]
# [4] = test system: CD34+/CXCR4+ cells in hematopoietic stem cells co-cultured with mesenchymal cells; experiment: CXCR4 in Mesenchymal-MNC co-culture at 21 days (CD34/CXCR4 double staining); assay type: cell-based, human; conditions: for Number of CD34+CXCR4+ cells: 21 days, co-culture + cytokines + Nicotinamide 5 mM; for % Increase of CD34+CXCR4+ cells: vs co-culture + cytokines without nicotinamide
# Text: Induction of CXCR4 expression in hematopoietic stem cells results in increased sensitivity to lower levels of SDF-1, increased migration of the cells to SDF-1, improved proliferation and survival of the hematopoietic stem cells in-vitro and in-vivo, and improved engraftment potential of the induced cells. Similarly, it has been shown that blockage of CXCR4 with specific antibodies prevents engraftment of hematopoietic stem cells (Brenner, et al Stem Cells 2004; 22:1128-33; Kahn et al, Blood, 2004; 103:2942-49; Peled et al, Science 1999; 283:845-48). In order to investigate the effect of modulators of cell fate on CXCR4 expression in hematopoietic stem cells in co-culture with mesenchymal cells, the population of CD34+/CXCR4+ cell in co-cultured cells was detected and quantified by double staining with PE labeled CD34 and FITC labeled CXCR4. […] This enhanced CXCR4 expression contributes to the enhanced engraftment potential of the expanded, undifferentiated hematopoietic stem cells.
# [5] = test system: hematopoietic stem cells (from bone marrow) co-cultured with mesenchymal cells; experiment: Long-term Mesenchymal-MNC co-culture (21 days +/- Nicotinamide, then 5 weeks cytokines only), assessed at 8 weeks; assay type: cell-based, human
# Description: Assay for Colony Forming Units (CFU)—Cells were cloned in semi-solid, methylcellulose-containing medium supplemented with 2 IU/mL erythropoietin (Eprex, Cilag AG Int., Switzerland), stem cell factor and IL-3, both at 20 ng/mL, G-CSF and GM-CSF, both at 10 ng/mL (all from Pepro Tech, Rocky Hill, N.J.). Cultures were incubated for 14 days at 37° C. in humidified atmosphere of 5% CO2 in air.
# In order to determine the long-term effects of modulators of cell fate on the long-term engraftment potential of hematopoietic stem cells, CFUc, CD34+ and CD34+/CD38− cells were assessed in co-cultured cells at 8 weeks (5 weeks after removal of nicotinamide from the medium).
# The mononuclear cell fraction, prepared as described above, was expanded in co-culture with mesenchymal cells in medium supplemented with cytokines and 5 mM nicotinamide, as described hereinabove, for 21 days. After 21 days, the medium was replaced with medium supplemented with cytokines only, and expansion in co-cultures continued for another 5 weeks. At 8 weeks, the expanded cells were assessed for hematopoietic stem cell markers (CD34+ and CD34+/CD38−), and for engraftment potential (CFUc), as described hereinabove.
# [6] = Table 1 experiment, 21 days, Nicotinamide 5 mM
# [7] = Table 2 experiment, 21 days, Nicotinamide 5 mM
# [8] = Table 3 experiment, 21 days, Nicotinamide 5 mM
# [9] = Table 4 experiment, 21 days, Nicotinamide 5 mM
# [10] = 21 days Nicotinamide 5 mM then 5 weeks cytokines only
smiles,measurement,setting,value
O=c1cc(N2CCOCC2)oc2c(-c3ccccc3)cccc12 [LY294002],stability in tissue culture medium,[1],very stable
"NC(=O)c1cccnc1 [Nicotinamide, nicotinamide]",CD34+CD38− (×10^4),[2]; [6],304 ×10^4
same,CD34+Lin− (×10^4),[2]; [6],25 ×10^4
same,TNC × 10^6,[2]; [6],309 × 10^6
same,CD34+CD38− (×10^4),[2]; [7],1238 ×10^4
same,CD34+Lin− (×10^4),[2]; [7],689 ×10^4
same,TNC × 10^6,[2]; [7],309 × 10^6
same,CD34+ (×10^4),[2]; [8],1553 ×10^4
same,CD34+/TNC,[2]; [8],5.3%
same,CD34+CD38− (×10^4),[2]; [8],82 ×10^4
same,TNC × 10^6,[2]; [8],292 × 10^6
same,CD34+/TNC,"[2]; Table 3 experiment, 21 days, Nicotinamide 5 mM, listed as nicotinamide",5.3%
same,CD34+ (×10^4),[2]; [9],216 ×10^4
same,CD34+/TNC,[2]; [9],1.5%
same,CD34+CD38− (×10^4),[2]; [9],63 ×10^4
same,CD34+Lin− (×10^4),[2]; [9],1.54 ×10^4
same,TNC × 10^6,[2]; [9],144 × 10^6
same,CD34+/TNC,"[2]; Table 4 experiment, 21 days, Nicotinamide 5 mM, listed as nicotinamide",1.5%
same,"greater expansion of stem cells (CD34+) relative to total nucleated cells, compared with cocultures without nicotinamide","[2]; Tables 3 and 4, 21 days, Nicotinamide 5 mM",≤ 2.3 times
same,increase of the proportion of CD34+/38− cells and CD34+/Lin− cells in the cultures,"[2]; with nicotinamide, in some cases, Tables 1-5",> 10 fold
same,CFU (×10^3),[3],4331 ×10^3
same,Number of CD34+CXCR4+ cells,[4]; Exp 1,65 × 10^4
same,% Increase of CD34+CXCR4+ cells,[4]; Exp 1,80%
same,Number of CD34+CXCR4+ cells,[4]; Exp 2,200 × 10^4
same,% Increase of CD34+CXCR4+ cells,[4]; Exp 2,33%
same,CD34+ cells (cumulative),[5]; [10],264 × 10^6
same,CD34+/CD38− (%),[5]; [10],6.3%
same,CFUc (cumulative),[5]; [10],28 × 10^6
same,Fold Increase (%) of CD34+ cells (cumulative),[5]; vs co-culture + cytokines,235%
same,Fold Increase (%) of CD34+/CD38− (%),[5]; vs co-culture + cytokines,1050%
same,Fold Increase (%) of CFUc (cumulative),[5]; vs co-culture + cytokines,215%
